From patent US20130267522A1, “METHODS FOR TREATING CANCER” (priority 2012, published 2013) come the findings set out here.

The subject of the experiment is naturally-occurring InvTCC. Description: Study of folate-vinblastine conjugate in dogs with naturally-occurring InvTCC (tumor response). Type of experiment: in vivo. Particulars: IV once weekly, dose escalation from 0.2 mg/kg. As to the method: A study was performed in dogs with naturally-occurring InvTCC to investigate antitumor activity and toxicity of folate targeted vinblastine treatment. The study of folate targeted vinblastine was performed in privately owned dogs with naturally-occurring InvTCC at the Purdue University Veterinary Teaching Hospital (PUVTH), Inclusion criteria for dogs in the study included: measurable, histologically-confirmed InvTCC; positive folate uptake detected by scintigraphy or FR expression observed in the tumor via IHC; expected survival of at least 6 weeks; and written dog owner consent. The study was open to dogs that had failed other therapies or who were not eligible for standard therapy.
The folate-vinblastine conjugate EC0905 was used. Briefly, EC0905 is a water-soluble folate conjugate of desacetylvinblastine monohydrazide (DA VLBH), which is constructed with the DA VLBH drug moiety attached to a hydrophilic folate-peptide compound via an endosome-cleavable disulfide bond (FIG. 1). A dose escalation study was performed. EC0905 was administered IV once weekly (starting dose 0.2 mg/kg), Dose escalation was performed within and between dogs with at least 3 dogs in each dose group, and at least 6 dogs treated at the maximum tolerated dose (MTD) (increased by 0.02 mg/kg in each dose group). Toxicity was assessed by CBCs, serum chemistry profiles, urinalyses, physical exams, and owner observations. Toxicity was classified by Veterinary Cooperative Oncology Group (VCOG) criteria.
The EC0905 dose was reduced by 10% if grade 2 toxicity was noted, and by 20% if grade 3 or higher toxicity occurred. Treatment was delayed by one week if the neutrophil count was<3000/mm^3 or platelet count <100,000/mm^3 the day treatment was due. The treatment protocol was scheduled to continue until 8 weeks beyond complete remission, or until cancer progression, or until unacceptable toxicity was noted.
Physical exam, medical history, and CBC were obtained weekly. Monthly evaluation included CBC, serum biochemical profile, urinalysis, urinary tract ultrasound, and mapping of the bladder masses by ultrasound. Urinary tumors were measured by a single ultrasound operator, and estimated tumor volume was recorded. Prior to treatment and at 8-week intervals, complete tumor staging (thoracic radiography, full abdominal ultrasonography) was performed, and tumor stage determined by the World Health Organization criteria for canine urinary bladder tumors. Tumor response was defined as: complete remission (no cancer detected), partial remission (PR, ≧50% decrease in tumor volume and no new tumor lesions), stable disease (SD, <50% change in tumor volume and no new tumor lesions), and progressive disease (PD, ≧50% increase in tumor volume or the development of new tumor lesions).

For the substance “Pte-γGlu-(Glu(1-amino-1-deoxy-D-glucitol)-Glu)3-Glu(1-amino-1-deoxy-D-glucitol)-Cys(S-ethyl-3-(4-desacetylvinblastinyl)hydrazinecarboxylate) [EC0905]”, the “Partial remission (PR), percent of cases” value was 50%; the “Partial remission (PR, ≧50% decrease in tumor volume and no new tumor lesions), number of dogs” value is 5 dogs; the “Stable disease (SD), percent of cases” value came out at 50%; the “Stable disease (SD, <50% change in tumor volume and no new tumor lesions), number of dogs” value came out at 5 dogs.
